Assay results from patent publication US8637528B2, “Use of PDE7 inhibitors for the treatment of movement disorders” (Omeros Corporation, priority 2007, dated 2014).
Entries after “also recorded” stand apart in the source; their conditions may differ. Where two headings read alike, the source gives them in different places. One block for each compound: values may come before it.

What was measured:
[1] = molecular target: T1, Catechol-O-Methyltransferase (COMT) (Sus scrofa, UniProt D3K5L3); conditions: read-out: Positive Control Expected IC50 (historical), COMT; historical value; cited from earlier work
T1 sequence (D3K5L3 1-270): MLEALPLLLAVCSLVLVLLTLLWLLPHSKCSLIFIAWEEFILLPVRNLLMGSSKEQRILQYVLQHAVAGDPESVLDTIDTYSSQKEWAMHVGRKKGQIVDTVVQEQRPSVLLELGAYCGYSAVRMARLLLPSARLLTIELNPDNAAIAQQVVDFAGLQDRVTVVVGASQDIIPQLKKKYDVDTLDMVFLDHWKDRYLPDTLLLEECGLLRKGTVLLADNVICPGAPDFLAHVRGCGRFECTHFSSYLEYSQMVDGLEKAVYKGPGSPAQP

[2] = molecular target: T1, Catechol-O-Methyltransferase (COMT); assay: biochemical; assay type: biochemical, pig
[3] = plasma and brain concentration in mice after intraperitoneal injection (LC/MS/MS); assay type: in vivo, mouse; conditions: mouse, at 0.5 mg/kg, analogous calculation
Procedure: Adult male C57BL/6J; retired breeders, aged between 7-9 months (Jackson Laboratory, Bar Harbor, Me., USA), singly housed.
Just prior to the harvesting of tissues, mice were anesthetized with avertin. Samples of whole brain or plasma were collected from three animals per time point at 15 minutes, 30 minutes, 60 minutes, 120 minutes, and 240 minutes after injection. Blood samples were collected by retro-orbital bleeding. Plasma was prepared and red cells were removed by centrifugation. The mice were perfused with saline to remove contaminating blood. The brains were removed and rapidly frozen in liquid nitrogen for subsequent analysis. The plasma and brain samples were stored at −80° C. or on dry ice and the concentration of compound was determined by LC/MS/MS analysis as follows:
Whole brain tissue was homogenized using a Mini-Beaddeater-8™ (BioSpec Products, Bartlesville, Okla.). Plasma or homogenized brain samples were precipitated with acetonitrile and filtered in 96-well format using Captiva 0.20 micron filtration plates (Varian Corp, Lake Forest, Calif.). Filtrates were evaporated under nitrogen to dryness at 50° C. and were then reconstituted for LC-MS analysis.
Quantitative measurements for inhibitory compound in plasma and brain samples were obtained using a Thermo Ultra triple quadrupole mass spectrometer (Thermo Fisher Scientific, San Jose, Calif.), utilizing electrospray ionization in the multiple reaction monitoring mode of data acquisition. Sample extracts were injected onto a 2.1×30 mm packed Xterra C18-MS high pressure liquid chromatography (HPLC) column (Waters Corp, Milford, Mass.). The mobile phase eluting the compound from the HPLC column was applied using a Thermo Surveyor MS Plus HPLC quaternary pumping system (Thermo Fisher Scientific, San Jose, Calif.) and a HTC PAL autoinjector (LEAP Technologies, Chapel Hill, N.C.).

MPTP-treated mice = assay: inked paw stride length in the MPTP mouse model of Parkinson's disease, panel of PDE7 inhibitors (Example 7); assay type: in vivo; conditions: 20 minutes after dose
Procedure: Adult male C57BL/6J; retired breeders, aged between 7-9 months Charles River Laboratories, Wilmington, Mass.), singly housed. Three groups of 35 mice were tested in series one week apart.
Mice received 2 subcutaneous injections of methylphenyltetrahydropyridine (“MPTP”) at a dose of 15 mg/kg (free base) with a 10-12 hour interval between injections. Control mice (sham lesion groups) were administered saline instead of MPTP.
Prior to injection with MPTP or saline, animals were pre-trained to walk across a clean sheet of paper into their home cage without stopping. For assessment of stride length, animals had their forepaws placed in black ink and the length of forepaw steps during normal walking (in a straight line only) was measured. The animals were immediately put back into their home cage upon completion of the task. Stride length was determined by measuring the distance between each step on the same side of the body, measuring from the middle toe of the first step to the heel of the second step. An average of at least four clear steps was calculated. The schedule for this experiment was as follows:
Because of the wide variation in aqueous solubility among these compounds, a number of different formulations were required. L-dopa was administered in 100 μl of phosphate buffered saline. For animals treated with L-dopa, the dopa decarboxylase inhibitor benserazide (100 μL of a 12.5 mg/kg solution) was administered 15 minutes prior to treatment with L-dopa in order to minimize the destruction of L-dopa in the peripheral blood. […] Therefore, the treatment effects observed are due solely to the PDE7 inhibitory compounds themselves. […] This phenomenon of “overshoot” has also been observed with L-dopa in MPTP-treated mice in which lower doses ameliorate hypoactivity while higher doses induce dyskinesias or uncontrolled movements (Lundblad M. et al., Exp Neurol.194(1):66-75 (2005); Pearce R. K. et al., Mov Disord. 10(6):731-40 (1995); Fredriksson, A. et al, Pharmacol-Toxicol. 67(4): 295-301 (1990)).
Retired breeder male mice were treated with either saline or 2×15 mg/kg MPTP to induce a Parkinsonian state (neurochemical loss of dopamine with corresponding behavioral deficits). On day one baseline stride length was measured and then mice were treated with either MPTP or with saline as a control. On day eight stride length was measured again, and the control value for stride length was derived from the stride length of saline-treated animals. The animals were then divided randomly into treatment groups. Compound OM955 (compound 3) was tested at 0.1 mg/kg, at 0.5 mg/kg, and at 0.1 mg/kg in combination with 1 mg/kg L-dopa.

PDE7A = PDE7A (Homo sapiens (Human), UniProt Q13946); assay: PDE7 phosphodiesterase scintillation proximity assay (SPA), PDE7A; assay type: biochemical
PDE7A, sequence (Q13946 whole entry, looked up): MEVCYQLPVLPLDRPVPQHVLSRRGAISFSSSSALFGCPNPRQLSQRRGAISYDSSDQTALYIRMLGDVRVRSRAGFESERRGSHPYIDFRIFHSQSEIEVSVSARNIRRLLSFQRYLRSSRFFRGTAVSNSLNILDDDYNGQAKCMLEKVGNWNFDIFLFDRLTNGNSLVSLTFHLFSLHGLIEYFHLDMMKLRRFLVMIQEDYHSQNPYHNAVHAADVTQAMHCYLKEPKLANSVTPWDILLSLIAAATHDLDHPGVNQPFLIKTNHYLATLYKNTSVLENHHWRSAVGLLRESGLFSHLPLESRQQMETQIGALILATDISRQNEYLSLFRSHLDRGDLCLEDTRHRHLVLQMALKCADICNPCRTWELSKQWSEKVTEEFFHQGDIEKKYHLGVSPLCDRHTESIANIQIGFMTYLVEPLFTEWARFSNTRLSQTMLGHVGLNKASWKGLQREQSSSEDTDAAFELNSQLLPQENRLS

PDE7B = PDE7B (Homo sapiens (Human), UniProt Q9NP56); assay: PDE7 phosphodiesterase scintillation proximity assay (SPA), PDE7B; assay type: biochemical
PDE7B, sequence (Q9NP56 107-450 limits assumed): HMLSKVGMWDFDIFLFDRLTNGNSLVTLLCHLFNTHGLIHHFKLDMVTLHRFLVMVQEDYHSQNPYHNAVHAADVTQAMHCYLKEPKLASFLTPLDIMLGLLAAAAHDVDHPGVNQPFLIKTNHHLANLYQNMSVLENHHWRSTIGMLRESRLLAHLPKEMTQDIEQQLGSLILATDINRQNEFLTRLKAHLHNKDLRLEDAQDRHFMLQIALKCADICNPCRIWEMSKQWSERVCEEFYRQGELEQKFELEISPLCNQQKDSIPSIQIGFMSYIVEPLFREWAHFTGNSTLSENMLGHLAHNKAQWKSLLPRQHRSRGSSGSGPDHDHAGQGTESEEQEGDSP

Tyrosine Hydroxylase [4] = molecular target: T2, Tyrosine Hydroxylase (Rattus norvegicus (Rat), UniProt P04177); assay: Tyrosine Hydroxylase enzyme assay; assay type: biochemical; conditions: read-out: Positive Control Observed IC50, Tyrosine Hydroxylase
T2 sequence (P04177 whole entry): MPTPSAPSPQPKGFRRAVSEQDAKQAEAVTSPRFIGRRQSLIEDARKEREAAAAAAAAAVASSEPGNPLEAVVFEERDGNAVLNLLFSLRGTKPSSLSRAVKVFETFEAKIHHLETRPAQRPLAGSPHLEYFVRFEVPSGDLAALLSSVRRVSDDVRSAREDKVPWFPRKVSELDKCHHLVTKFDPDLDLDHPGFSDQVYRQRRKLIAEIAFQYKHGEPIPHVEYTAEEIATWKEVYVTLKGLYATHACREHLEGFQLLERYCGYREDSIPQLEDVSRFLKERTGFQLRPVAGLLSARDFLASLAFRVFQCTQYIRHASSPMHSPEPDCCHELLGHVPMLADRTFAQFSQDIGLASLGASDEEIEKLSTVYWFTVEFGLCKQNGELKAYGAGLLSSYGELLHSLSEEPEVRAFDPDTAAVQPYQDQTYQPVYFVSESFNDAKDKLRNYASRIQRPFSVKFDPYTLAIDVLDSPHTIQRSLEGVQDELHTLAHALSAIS
Procedure: Tyrosine Hydroxylase was assayed as described in Roskoski, R., Jr., et al., J. Biochem 218:363-370 (1993) with the following modifications. Tyrosine Hydroxylase was isolated from Wistar rat brain. The substrate was 100 μM L-[3,5-^3H]Tyrosine+L-Tyrosine. The vehicle control was 1% DMSO. Compound OM69 was tested at 10 μM in incubation buffer (125 mM MES, pH 6.0, 0.5 mg/ml Catalase, 12.5 mM DTT, 0.5 mM (6R)-5,6,7,8-Tetrahydrobiopterin). The reaction was pre-incubated for 15 minutes at 37° C. Tyrosine Hydroxylase enzyme was added, and the reaction was incubated for 20 minutes at 37° C. [^3H]-H20 was quantitated.

Tyrosine Hydroxylase [5] = molecular target: T2, Tyrosine Hydroxylase; conditions: historical value; read-out: Positive Control Expected IC50 (historical), Tyrosine Hydroxylase; cited from earlier work

SMILES: O=[N+]([O-])c1cc(O)c(O)c([N+](=O)[O-])c1 [3,5-Dinitrocatechol, reference compound]
- IC50 [1]: 310 nM
- IC50 [2]: 606 nM

- maximal brain concentration at dose where efficacy was observed [3]: 358 nM
- potency of PDE7A inhibition, in words (PDE7A): high potency
- potency of PDE7B inhibition, in words (PDE7B): high potency
- IC50 (PDE7B; unit inferred): 9.27 nM
SMILES: COc1cc(N)ccc1-c1nc2c(C)nn(C3CCCCC3)c2c(=O)[nH]1 [OM056]
- effect on stride length, in words (MPTP-treated mice; OM056 0.05 mg/kg): statistically significant increase; also recorded: full recovery of baseline stride length

SMILES: C[C@](N)(Cc1ccc(O)cc1)C(=O)O [α-Methyl-L-P-Tyrosine, reference compound]
- IC50 (Tyrosine Hydroxylase [4]): 20200 nM
- IC50 (Tyrosine Hydroxylase [5]): 20000 nM

- maximal brain concentration at dose where efficacy was observed [3]: 5260 nM
- potency of PDE7A inhibition, in words (PDE7A): moderate potency
- potency of PDE7B inhibition, in words (PDE7B): moderate potency
SMILES: CC(=O)Nc1ccc(-c2nn(C)/c(=N/C3CCCCC3)s2)cc1 [OM956]
- effect on stride length, in words (MPTP-treated mice; OM956 0.5 mg/kg): statistically significant increase; also recorded: full recovery of baseline stride length
